Read-outs that look alike come from different tables or passages of the source.
Target: T1, his-galectin-3 (Homo sapiens, UniProt P17931)
T1 construct: purchased Abcam
Assay: TR-FRET assay (in vitro galectin-3 binding inhibitory activity test)
Conditions: compound at 20 μM, 60 nM his-galectin-3, 15 nM biotin-ASF, read-out: % Inhibitory activity (at 20 μM)
Protocol: TR-FRET Assay (In Vitro Galectin-3 Binding Inhibitory Activity Test)
TR-FRET assay was performed in ½ Area Plate-96 (PerkinElmer). Final concentrations of components in the assay were 60 nM his-galectin-3 (Abcam), 15 nM biotin-ASF (Axxora), 2 nM Mab anti-6×His Tb (Cisbio) and 20 nM SA-d2 (Cisbio). The reaction was performed in a buffer containing 25 mM HEPES, 100 mM NaCl, 0.005% Tween 20 and 0.05% BSA. 20 μL his-galectin-3 and 1 μL compound were mixed first, and then 20 μL biotin-ASF, 5 μL anti-His Tb and 5 μL SA-d2 were added in order. After incubation for at least 3.5 hours at RT, TR-FRET signals were measured at 615/665 nm […] wavelengths using a VICTOR Nivo (PerkinElmer). The positive control used DMSO instead of the compound, and the negative control excluded ASF-biotin. N-acetyl-D-lactosamine (LacNAc), an endogenous ligand unit of galectin-3, was evaluated together as a control substance to compare galectin-3 binding inhibitory activity.

T1 sequence (P17931 whole entry): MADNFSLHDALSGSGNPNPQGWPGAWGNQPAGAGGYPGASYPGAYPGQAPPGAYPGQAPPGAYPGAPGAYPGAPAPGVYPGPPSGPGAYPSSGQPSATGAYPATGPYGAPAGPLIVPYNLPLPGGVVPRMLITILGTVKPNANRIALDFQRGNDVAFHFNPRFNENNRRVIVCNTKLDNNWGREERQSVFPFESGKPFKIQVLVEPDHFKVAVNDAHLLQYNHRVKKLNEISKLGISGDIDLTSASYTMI

O=C(CO[C@@H]1[C@@H](n2cc(-c3cc(F)c(F)c(F)c3)nn2)[C@@H](O)[C@@H](CO)O[C@@]12CCCO2)N1CCC(O)CC1 [Compound A22, 2-(((5S,7R,8R,9S,10R)-8-hydroxy-7-(hydroxymethyl)-9-(4-(3,4,5-trifluorophenyl)-1H-1,2,3-triazol-1-yl)-1,6-dioxaspiro[4.5]decan-10-yl)oxy)-1-(4-hydroxypiperidin1-yl)ethanone]
inhibition at 20 µM (Table 1): 25 to 50% | inhibition at 20 µM (Table 3, found values): 28.1%

O=C(CO[C@@H]1[C@@H](n2cc(-c3cc(F)c(F)c(F)c3)nn2)[C@@H](O)[C@@H](CO)O[C@@]12CCCO2)Nc1ccccc1 [Compound A23, 2-(((5S,7R,8R,9S,10R)-8-hydroxy-7-(hydroxymethyl)-9-(4-(3,4,5-trifluorophenyl)-1H-1,2,3-triazol-1-yl)-1,6-dioxaspiro[4.5]decan-10-yl)oxy)-N-phenylacetamide]
inhibition at 20 µM (Table 1): 25 to 50%

OC[C@H]1O[C@@]2(CCCCO2)[C@H](O)[C@@H](n2cc(-c3cc(F)c(F)c(F)c3)nn2)[C@H]1O [Compound A24, (2R,3R,4S,5R,6S)-2-(hydroxymethyl)-4-(4-(3,4,5-trifluorophenyl)-1H-1,2,3-triazol-1-yl)-1,7-dioxaspiro[5.5]undecane-3,5-diol]
inhibition at 20 µM (Table 1): 25 to 50%

OC[C@H]1O[C@@]2(CCCCO2)[C@H](OCc2ccccc2)[C@@H](n2cc(-c3cc(F)c(F)c(F)c3)nn2)[C@H]1O [Compound A25, (2R,3R,4S,5R,6S)-5-(benzyloxy)-2-(hydroxymethyl)-4-(4-(3,4,5-trifluorophenyl)-1H-1,2,3-triazol-1-yl)-1,7-dioxaspiro[5.5]undecan-3-ol]
inhibition at 20 µM (Table 1): 25 to 50%

O=S1(=O)CCC(CO[C@@H]2[C@@H](n3cc(-c4cc(F)c(F)c(F)c4)nn3)[C@@H](O)[C@@H](CO)O[C@@]23CCCO3)CC1 [Compound A26, 4-((((5S,7R,8R,9S,10R)-8-hydroxy-7-(hydroxymethyl)-9-(4-(3,4,5-trifluorophenyl)-1H-1,2,3-triazol-1-yl)-1,6-dioxaspiro[4.5]decan-10-yl)oxy)methyl)tetrahydro-2H-thiopyran 1,1-dioxide]
inhibition at 20 µM (Table 1): 25 to 50%

OC[C@H]1O[C@@]2(CCCO2)[C@H](OCC(F)F)[C@@H](n2cc(-c3cc(F)c(F)c(F)c3)nn2)[C@H]1O [Compound A27, (5S,7R,8R,9S,10R)-10-(2,2-difluoroethoxy)-7-(hydroxymethyl)-9-(4-(3,4,5-trifluorophenyl)-1H-1,2,3-triazol-1-yl)-1,6-dioxaspiro[4.5]decan-8-ol]
inhibition at 20 µM (Table 1): 25 to 50%

Cn1nnc(-c2ccc(CO[C@@H]3[C@@H](n4cc(-c5cc(F)c(F)c(F)c5)nn4)[C@@H](O)[C@@H](CO)O[C@@]34CCCO4)cc2)n1 [Compound A28, (5S,7R,8R,9S,10R)-7-(hydroxymethyl)-10-((4-(2-methyl-2H-tetrazol-5-yl)benzyl)oxy)-9-(4-(3,4,5-trifluorophenyl)-1H-1,2,3-triazol-1-yl)-1,6-dioxaspiro[4.5]decan-8-ol]
inhibition at 20 µM (Table 1): 25 to 50%

O=C(CO[C@@H]1[C@@H](n2cc(-c3cc(F)c(F)c(F)c3)nn2)[C@@H](O)[C@@H](CO)O[C@@]12CCCO2)Nc1ccc(Cl)nn1 [Compound A29, N-(6-chloropyridazin-3-yl)-2-(((5S,7R,8R,9S,10R)-8-hydroxy-7-(hydroxymethyl)-9-(4-(3,4,5-trifluorophenyl)-1H-1,2,3-triazol-1-yl)-1,6-dioxaspiro[4.5]decan-10-yl)oxy)acetamide]
inhibition at 20 µM (Table 1): < 25%

OC[C@H]1O[C@]2(OCC[C@H]2c2ccccc2)[C@H](O)[C@@H](n2cc(-c3cc(F)c(F)c(F)c3)nn2)[C@H]1O [Compound A30, (4S,5S,7R,8R,9S,10R)-7-(hydroxymethyl)-4-phenyl-9-(4-(3,4,5-trifluorophenyl)-1H-1,2,3-triazol-1-yl)-1,6-dioxaspiro[4.5]decane-8,10-diol]
inhibition at 20 µM (Table 1): < 25%

O=C(O[C@@H]1[C@@H](n2cc(-c3cc(F)c(F)c(F)c3)nn2)[C@@H](O)[C@@H](CO)O[C@@]12CCCO2)c1ccccc1 [Compound A31, (5S,7R,8R,9S,10R)-8-hydroxy-7-(hydroxymethyl)-9-(4-(3,4,5-trifluorophenyl)-1H-1,2,3-triazol-1-yl)-1,6-dioxaspiro[4.5]decan-10-yl benzoate]
inhibition at 20 µM (Table 1): 25 to 50%

COC(=O)CO[C@@H]1[C@@H](n2cc(-c3cc(F)c(F)c(F)c3)nn2)[C@@H](O)[C@@H](CO)O[C@@]12CCCCO2 [Compound A32, methyl-2-(((2R,3R,4S,5R,6S)-3-hydroxy-2-(hydroxymethyl)-4-(4-(3,4,5-trifluorophenyl)-1H-1,2,3-triazol-1-yl)-1,7-dioxaspiro[5.5]undecan-5-yl)oxy)acetate]
inhibition at 20 µM (Table 1): 25 to 50% | inhibition at 20 µM (Table 3, found values): 36.7%

O=C(CO[C@@H]1[C@@H](n2cc(-c3cc(F)c(F)c(F)c3)nn2)[C@@H](O)[C@@H](CO)O[C@@]12CCCO2)N1CC(F)(F)C1 [Compound A33, 1-(3,3-difluoroazetidin-1-yl)-2-(((5S,7R,8R,9S,10R)-8-hydroxy-7-(hydroxymethyl)-9-(4-(3,4,5-trifluorophenyl)-1H-1,2,3-triazol-1-yl)-1,6-dioxaspiro[4.5]decan-10-yl)oxy)ethanone]
inhibition at 20 µM (Table 1): 25 to 50%

O=C(CO[C@@H]1[C@@H](n2cc(-c3cc(F)c(F)c(F)c3)nn2)[C@@H](O)[C@@H](CO)O[C@@]12CCCO2)N1CC(O)C1 [Compound A34, 2-(((5S,7R,8R,9S,10R)-8-hydroxy-7-(hydroxymethyl)-9-(4-(3,4,5-trifluorophenyl)-1H-1,2,3-triazol-1-yl)-1,6-dioxaspiro[4.5]decan-10-yl)oxy)-1-(3-hydroxyazetidin-1-yl)ethanone]
inhibition at 20 µM (Table 1): 25 to 50%

OC[C@H]1O[C@@]2(CCCO2)[C@H](OCc2ccc3c(c2)OCO3)[C@@H](n2cc(-c3cc(F)c(F)c(F)c3)nn2)[C@H]1O [Compound A35, (5S,7R,8R,9S,10R)-10-(benzo[d][1,3]dioxol-5-ylmethoxy)-7-(hydroxymethyl)-9-(4-(3,4,5-trifluorophenyl)-1H-1,2,3-triazol-1-yl)-1,6-dioxaspiro[4.5]decan-8-ol]
inhibition at 20 µM (Table 1): 25 to 50%

OC[C@H]1O[C@@]2(CCCO2)[C@H](OCc2ccccc2O)[C@@H](n2cc(-c3cc(F)c(F)c(F)c3)nn2)[C@H]1O [Compound A37, (5S,7R,8R,9S,10R)-10-((2-hydroxybenzyl)oxy)-7-(hydroxymethyl)-9-(4-(3,4,5-trifluorophenyl)-1H-1,2,3-triazol-1-yl)-1,6-dioxaspiro[4.5]decan-8-ol]
inhibition at 20 µM (Table 1): 25 to 50%

OC[C@H]1O[C@@]2(CCCO2)[C@H](OCc2cccc(O)c2)[C@@H](n2cc(-c3cc(F)c(F)c(F)c3)nn2)[C@H]1O [Compound A38, (5S,7R,8R,9S,10R)-10-((3-hydroxybenzyl)oxy)-7-(hydroxymethyl)-9-(4-(3,4,5-trifluorophenyl)-1H-1,2,3-triazol-1-yl)-1,6-dioxaspiro[4.5]decan-8-ol]
inhibition at 20 µM (Table 1): 25 to 50%

O=C(O[C@@H]1[C@@H](n2cc(-c3cc(F)c(F)c(F)c3)nn2)[C@@H](O)[C@@H](CO)O[C@@]12CCCO2)c1cccc(F)c1 [Compound A39, (5S,7R,8R,9S,10R)-8-hydroxy-7-(hydroxymethyl)-9-(4-(3,4,5-trifluorophenyl)-1H-1,2,3-triazol-1-yl)-1,6-dioxaspiro[4.5]decan-10-yl 3-fluorobenzoate]
inhibition at 20 µM (Table 1): 50 to 75%
